Test: Human HepG2 cell viability assay in 384 well format
Format: toxicity, cell-based
Set-up: dose 125 nL, time 70.5 hour; concentration not given beside the values
Conditions: HepG2 cells, read-out: Inhibition

SMILES	cytotoxicity at 70.5 h
CN1CCN(Cn2nc(-c3cccs3)ccc2=O)CC1	-29.8%
CCN(CC)c1ncnc2c(C)nn(CC)c12	-0.883%
CNC(=O)c1nc2c(s1)CCN(C(=O)c1ccc(OC)cc1)CC2	-7.87%
NC(=O)Cn1cc(NC(=O)N2CCN(c3ccc(F)cc3)CC2)cn1	8.67%
Cc1csc(CCNC(=O)C2CCOC2)n1 (centres undefined)	-2.45%
CC(C)c1nccc(-c2nccn2CCN(C)S(C)(=O)=O)n1	19%
Nc1ccnc(C(=O)N2CCCC3(CCC(=O)N(C4CCCC4)C3)C2)c1 (centres undefined)	-7.4%
Cc1cnn(CCNc2nc(C)cc(N(C)C)n2)c1	11.4%
O=c1cc(CNCc2ccc3c(c2)OCO3)nc2ccc(Br)cn12	0.0084%
CC(C)n1ccnc1C1CCCN(Cc2ccc(F)c(F)c2)C1 (centres undefined)	38%
O=S(=O)(NCc1ccc(S(=O)(=O)N2CCCC2)s1)c1ccc(Cl)cc1	-12.5%
CSc1ncc(C(=O)N2C[C@H]3CC[C@@H]2CN(S(=O)(=O)N(C)C)C3)cn1	-1.22%
O=C([C@@H]1C[C@@H]2CCN(C3CCOCC3)C[C@H]2O1)N1CCOCC1	-0.695%
O=C(CCC1CCCC1)N1CCC(c2cc3ncccc3c(O)n2)CC1	0.616%
CCCc1nnc(SCC(=O)Nc2cc(C(C)(C)C)nn2C)[nH]1	-13.2%
Cc1nnc(SCCCNC(=O)Cc2ccc3c(c2)OCO3)s1	11.5%
Cc1ccc(N(Cc2ccco2)C(=O)CC2=NN(C)C(=O)C2)cc1	-9.83%
CCCOc1ccc(OCCN2CCOCS2(=O)=O)cc1	-10.3%
Cc1sc2nc(CCN)nc(N3CCC(N4CCCC4)CC3)c2c1C	-4.21%
O=C(N1CCN(CCO)CC1)C1(O)Cc2ccccc2C1	-4.44%
O=C(Nc1nnc(C2CC2)s1)NC1CCN(Cc2ccccc2)C1 (centres undefined)	-28%
Cc1ccc2c(c1)OC(C)CN2C(=O)CCc1cccnc1 (centres undefined)	1.51%
CCS(=O)(=O)NCc1nc(C)cc(N2CCCC2)n1	19.2%

SMILES	cytotoxicity at 70.5 h
COC(=O)c1ccc(CCn2cnc(C#N)n2)cc1	13.2%
O=C(c1ccoc1)N1CCc2ncc(Cn3cccn3)n2CC1	-7.98%
Cc1nn(C)c2nc(C(C)C)cc(C(=O)Nc3n[nH]c(C4CC4)n3)c12	27%
Cc1cccc(NC(=O)C2CSCN2C(=O)c2cnccn2)c1C (centres undefined)	-7.92%
C=Cn1ncc(CN2CCC(c3ncc(Cl)cc3S(C)(=O)=O)CC2)c1C	10%
O=C(Cc1ccccc1F)NCCN1CCOCC1	-6.95%
CN(C)C(=O)CO[C@H]1CN(Cc2ccc(F)cc2)[C@@H]2CCCO[C@H]12	-9.38%
CN(CCCOc1ccccc1)S(=O)(=O)c1cnn(C)c1	21.2%
Cc1cnn(CCCNC2Cc3ccccc3C2)c1	9.93%
Cc1cccc(CC(=O)Nc2cccnc2N2CCC(CO)CC2)c1	-2.43%
Cc1nc(CC(=O)N2CCCN(c3ccc(F)cc3)CC2)cs1	-3.38%
O=C(c1ccco1)N1CCc2c(COCC3CC3)cncc2C1	-8.01%
Cc1sc(Br)cc1S(=O)(=O)NCCN	-7.86%
Cc1noc(C)c1CCC(=O)N1CCN(CCn2cccn2)CC1	14.6%
Cc1ccc(SC2CCCC2)c(C(=O)NCc2n[nH]c(=O)[nH]2)c1	-11.2%
Cc1noc([C@]23COC[C@H]2CN(S(C)(=O)=O)C3)n1	-1.56%
CN(Cc1cn2c(n1)CN(C(=O)c1cccn1C)CC2)Cc1ccco1	9.36%
Cc1ccc(OCC2CCCN(CC3CCOCC3)C2)cc1 (centres undefined)	2.28%
C[C@@H]1CN(c2nc3c(cc2C(N)=O)CCC3)C[C@@]1(O)C1CCC1	-11.3%
Cc1n[nH]c(C)c1-c1cnc(CC2CCN(C)C2)cn1 (centres undefined)	-17.7%
Cc1noc(C(C)C)c1C(=O)NS(=O)(=O)c1ccc2c(c1)OCCCO2	-9.35%
Cc1noc(-c2ccc(N(C)Cc3ccncc3C)nc2)n1	-5.41%
CCc1nc(C2CCCN2Cc2nc(C(C)(C)C)no2)no1 (centres undefined)	2.43%

SMILES	cytotoxicity at 70.5 h
Cn1c(=O)[nH]c2cc(C(=O)OCC(F)F)ccc21	19.9%
O=C(NCCCN1CCCCC1)c1n[nH]c(=O)c2ccccc12	25%
COCCN(CCOC)c1ncc(C#N)cc1Cl	-15.8%
CC(NC(=O)CCc1nc(C(C)(C)C)no1)c1nnc2n1CCC2 (centres undefined)	-7.28%
O=C([C@@H]1Cc2[nH]cnc2CN1Cc1cc2ccccc2o1)N1CCCC1	8.38%
C[C@H]1C[C@@H]2CCN(Cc3ccco3)C[C@H]2O1	-7.2%
CC(C)(C)NC(=O)CN1CCCN(c2ccc(C#N)cn2)CC1	-6.98%
CC(=O)N1CCC(Oc2ccc(Cl)cc2C(=O)N2CCCO2)CC1	-3.91%
CC(C)c1noc(CN(Cc2ccc(F)cc2)C2CC2)n1	-8.41%
O=C(CCn1cnc2cc(F)c(F)cc21)N1CCN(C2CC2)CC1	-5.93%
CC(C)N1CCC(Cc2cncc(-c3cccc(C(=O)O)c3)n2)C1 (centres undefined)	-5.63%
COc1ccc(NC(=O)NCCCn2nc3ccccn3c2=O)cc1	-3.39%
Cc1nn(C)c(C)c1C1CCCN1C(=O)c1ccc2nnc(C)n2c1 (centres undefined)	-2.36%
COCC1CC2(CCN(Cc3ccccn3)CC2)CN1C(C)C (centres undefined)	-7.51%
CC(C(=O)N(Cc1ccc(C#N)cc1)CC(F)(F)F)S(C)(=O)=O (centres undefined)	-10.1%
Cc1ccccc1-c1cncc(C2CCN(C3CCOCC3)CC2)n1	1%
COCCc1noc(CN2CCCCC2Cn2cccn2)n1 (centres undefined)	-11.6%
O=C(c1sccc1-n1cnnn1)N1CCC2(CCCCC2)CC1	11.8%
Cc1cnn(CC(=O)N2CCCN(c3nc(C)cs3)CC2)c1	0.581%
O=C(Cn1cnnn1)Nc1ccc(F)cc1OCC1CC1	-13.9%
CN(Cc1ccc(Cl)s1)C(=O)CN(C)C1CCc2ccccc21 (centres undefined)	-13.1%
O=C(c1ccccc1)N1CCC[C@]2(C[C@@H](OCc3ccccn3)CO2)C1	-13.1%
O=C(O)c1cc(-c2ccoc2)cc(S(=O)(=O)NC2CC2)c1	-6.76%

SMILES	cytotoxicity at 70.5 h
CCS(=O)(=O)CC(=O)NC(C)c1ccc(F)cc1F (centres undefined)	-6.32%
COC(=O)c1cccn1C1CCN(Cc2nc3ccccc3o2)CC1	-3.04%
O=C(CCNC(=O)c1ccccc1N1CCOCC1)NC1CCCC1	-1.96%
CN(C)S(=O)(=O)N1CCCCC1CCc1ccc(O)cc1 (centres undefined)	-6.59%
CC1(C)CC(N(Cc2ccccc2)Cc2cccnc2)CC(C)(C)N1	30.7%
O=S(=O)(CCCn1cncn1)Cc1cccc(F)c1	-9.13%
CC(C)c1nc(N2CCC(N3CCSCC3)CC2)c2cnn(C)c2n1	-2.43%
CCOC(=O)Cn1c(=O)nc2n1C(=O)N(c1ccccc1)C2	8.85%
COc1ccc(CC(=O)N2CCCC(n3nc(C)cc3C)C2)cc1F (centres undefined)	-9.02%
Cc1ccc(-c2ccnc(N(C)CC3CCCO3)n2)c(C)n1 (centres undefined)	-6.23%
CCOc1ncccc1NC(=O)NC1CCN(S(C)(=O)=O)CC1	20.6%
CC(C)c1nnsc1CNC(=O)C1CCN(C(=O)C2CCC2)CC1	-5.12%
CNC(=O)CN(C(=O)c1cc(C(C)C)no1)c1cccc(F)c1	27.9%
Cc1c[nH]c(CN2CCN(C)C3(CCC(=O)N(CC4CC4)CC3)C2)n1 (centres undefined)	19.9%
CCOc1ccc(S(=O)(=O)Nc2cnc(OC)nc2OC)cc1	9.83%
NC(=O)C1CCCN1C(=O)c1cccc2c1OCO2 (centres undefined)	-1.57%
CN(C)C1(CNC(=O)Cc2ccc(F)cc2)CCOCC1	-5.15%
c1ccc(N(CCn2cncn2)CC2CC2)cc1	-4.37%
O=C(Nc1ccc(-c2ccco2)cc1)C1CCCN(Cc2ccon2)C1 (centres undefined)	1.57%
C[C@H](O)CNc1cc(-c2cn[nH]c2)ncn1	6.37%
CCc1n[nH]c(C2CN(C(=O)c3ccsc3)CCO2)n1 (centres undefined)	-9.96%
O=C(NCc1cccc(Cl)c1)C1=NOC2(CCNC2)C1 (centres undefined)	-6.34%
CNS(=O)(=O)c1ccc(CNC(=O)C2CCCN(C)C2)cc1 (centres undefined)	-6.65%

SMILES	cytotoxicity at 70.5 h
Cc1nc(CN2CCCC2Cn2cccn2)nc2ccccc12 (centres undefined)	7.51%
CN(C)C[C@@H]1CN(C(=O)Cc2ccc3ccccc3c2)C[C@@H]1CO	-8.64%
COc1ccccc1C(C)CC(=O)N1CCCS1(=O)=O (centres undefined)	-5.37%
CCc1cc(N2CCC(Nc3ccc4nnc(C)n4n3)CC2)ncn1	2.09%
Cc1cc(N(C)Cc2ncc(-c3ccccc3C(=O)O)s2)ncn1	16.7%
c1ccc2nc(N3CCOC(Cn4cncn4)C3)cnc2c1 (centres undefined)	-5.96%
Cc1cccc(N2CC[C@H]3CO[C@H](CN(C)Cc4ccco4)[C@H]3C2)n1	-2.06%
CCCn1nc(C)c2c1NC(=O)CC2c1ccc(CN2CCCC2)s1 (centres undefined)	-9.08%
Clc1cccnc1OC1CCNCC1	22.1%
Cn1cc(CN2C[C@@H]3COC[C@]3(C(=O)N3CCCO3)C2)cn1	-1.04%
O=C1N(Cc2ccccn2)C[C@H]2CN(C3CCC3)CCN12	2.38%
CCCN(Cc1ccccc1O)S(=O)(=O)N(C)CC	-6.19%
c1coc(CN2CCCn3c(nnc3Cn3cccc3)C2)c1	-3.91%
CN(C)C(=O)CN1CCC2(CCN(Cc3nccs3)CC2)C1=O	16.1%
CC(C)NC(=O)Nc1nc2c(s1)CN(C(=O)NCc1cccs1)CC2	-0.676%
Cn1ccc(CN2CCC(CN3CCOCC3)CC2)cc1=O	-7.39%
CCCN1C(=O)CC(N2CCN(c3ccc(F)cc3)CC2)C1=O (centres undefined)	7.23%
CC1CCN(CC(=O)NC(C#N)c2cnn(-c3ccccc3)c2)CC1 (centres undefined)	-2.96%
CC(C)(C)c1nnc(CN2CCCC(Cn3cncn3)C2)o1 (centres undefined)	-5.42%
Cc1cc(C)cc(N(C)S(=O)(=O)c2cc3c(c(C(=O)O)c2)OCCO3)c1	-12.8%
CC(C)c1noc(CN(Cc2ccccc2)C2CC2)n1	0.0143%
Cc1cnc(N2CCC3(CC(=O)N(Cc4csc(C)n4)C3)C2)nc1 (centres undefined)	-11.1%

— ChEMBL document CHEMBL3507680, “University of Dundee, Gates Library screen for HepG2 cell viability”
